Patent US12497365B2, “4-pyridinyl formamide compound or derivative thereof, preparation method therefor, herbicidal composition and use thereof” (Qingdao Kingagroot Chemical Compound Co., Ltd., priority 2019, dated 2025)

What was measured:
Test in all cases: Weeding effect in post-emergence stage
Type in all cases: in vivo
Settings in all cases: active ingredient 2000 g/ha, 3 weeks after application, fresh weight control rate
Abutilon theophrasti = tested on: Abutilon theophrasti
In short: (§1)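 Control of growth was scored on fresh weight 3 weeks after a post-emergence spray-tower application. Rates were 2000, 1000, 500, 250 or 125 g/ha, formulated in acetone/Tween 80 plus methyl oleate concentrate (1.5 L/ha), and applied to potted plants at the 2-3 leaf stage.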

[1] = tested on: Amaranthus retroflexus L.
In short: as §1

Chenopodium album = tested on: Chenopodium album
In short: as §1

Descurainia sophia = tested on: Descurainia sophia
In short: as §1

Row | SMILES | Weeding effect, activity level (growth control rate), Abutilon theophrasti (Abutilon theophrasti) | Weeding effect, activity level (growth control rate), Amaranthus retroflexus L. [1] | Weeding effect, activity level (growth control rate), Chenopodium album (Chenopodium album) | Weeding effect, activity level (growth control rate), Descurainia sophia (Descurainia sophia)
1 | Cn1nnnc1NC(=O)c1ccnc(-c2ccc(F)cc2)c1-c1ccc(F)cc1 [Compound 1-223] | 5 (Level 5: growth control rate is above 85%) | 5 (Level 5: growth control rate is above 85%) | 5 (Level 5: growth control rate is above 85%) | 5 (Level 5: growth control rate is above 85%)
2 | Cn1nnnc1NC(=O)c1ccnc(-c2cscn2)c1Cl [Compound 1-228] | 5 (Level 5: growth control rate is above 85%) | 5 (Level 5: growth control rate is above 85%) | 5 (Level 5: growth control rate is above 85%) | 5 (Level 5: growth control rate is above 85%)
3 | Cn1nnnc1NC(=O)c1ccnc(-c2cncs2)c1Cl [Compound 1-229] | 5 (Level 5: growth control rate is above 85%) | 5 (Level 5: growth control rate is above 85%) | 5 (Level 5: growth control rate is above 85%) | 5 (Level 5: growth control rate is above 85%)
4 | Cn1nnnc1NC(=O)c1ccnc(-c2nccs2)c1Cl [Compound 1-230] | 5 (Level 5: growth control rate is above 85%) | 5 (Level 5: growth control rate is above 85%) | 5 (Level 5: growth control rate is above 85%) | 5 (Level 5: growth control rate is above 85%)
5 | Cn1ccnc1-c1nccc(C(=O)Nc2nnnn2C)c1Cl [Compound 1-233] | 5 (Level 5: growth control rate is above 85%) | 5 (Level 5: growth control rate is above 85%) | 5 (Level 5: growth control rate is above 85%) | 5 (Level 5: growth control rate is above 85%)
6 | Cn1cncc1-c1nccc(C(=O)Nc2nnnn2C)c1Cl [Compound 1-234] | 5 (Level 5: growth control rate is above 85%) | 5 (Level 5: growth control rate is above 85%) | 5 (Level 5: growth control rate is above 85%) | 5 (Level 5: growth control rate is above 85%)
7 | Cc1nnc(-c2nccc(C(=O)Nc3nnnn3C)c2Cl)s1 [Compound 1-249] | 5 (Level 5: growth control rate is above 85%) | 5 (Level 5: growth control rate is above 85%) | 5 (Level 5: growth control rate is above 85%) | 5 (Level 5: growth control rate is above 85%)
8 | CCn1nnnc1NC(=O)c1ccnc(-c2ccc(F)cc2)c1Cl [Compound 1-307] | 5 (Level 5: growth control rate is above 85%) | 5 (Level 5: growth control rate is above 85%) | 5 (Level 5: growth control rate is above 85%) | 5 (Level 5: growth control rate is above 85%)
9 | Cn1ncnc1NC(=O)c1ccnc(-c2ccc(F)cc2)c1Cl [Compound 1-334] | 5 (Level 5: growth control rate is above 85%) | 5 (Level 5: growth control rate is above 85%) | 5 (Level 5: growth control rate is above 85%) | 5 (Level 5: growth control rate is above 85%)
10 | Cc1nnc(NC(=O)c2ccnc(-c3ccc(F)cc3)c2Cl)n1C [Compound 1-650] | 5 (Level 5: growth control rate is above 85%) | 5 (Level 5: growth control rate is above 85%) | 5 (Level 5: growth control rate is above 85%) | 5 (Level 5: growth control rate is above 85%)
11 | Cc1nnc(NC(=O)c2ccnc(-c3ccc(F)cc3)c2Cl)o1 [Compound 1-962] | 5 (Level 5: growth control rate is above 85%) | 5 (Level 5: growth control rate is above 85%) | 5 (Level 5: growth control rate is above 85%) | 5 (Level 5: growth control rate is above 85%)
